How the values were obtained:
A1 reactive astrocytes = test: A1 reactive astrocyte attachment on PDMS coated plates (targeted drug delivery); format: cell-based, mouse; settings: 30 ng/ml, 48 h
Experimental: Purification of astrocytes by immunopanning: Astrocytes were purified by immunopanning from post-natal day (P) 5 mouse brains and cultured as previously described (Foo et al., Neuron. 71(5):799-811, 2011). Cerebral cortices were dissected and enzymatically digested using papain at 37° C. and 10% CO2. Tissue was then mechanically triturated with a serological pipette at RT to generate a single-cell suspension. The suspension was filtered and negatively panned for microglia/macrophage cells (CD45), oligodendrocyte progenitor cells (04 hybridoma), and endothelial cells (L1) followed by positive panning for astrocyte cells (ITGB5). Astrocytes were cultured in defined, serum-free medium containing 50% neurobasal, 50% DMEM, 100 U/mL penicillin, 100 μg/mL streptomycin, 1 mM sodium pyruvate, 292 μg/mL L-glutamine, 1×SATO, 5 μg/mL of N-acetyl cysteine, and 5 ng/mL HBEGF.
Targeted drug delivery: A1 reactive astrocytes were generated by culturing the purified astrocytes on PDMS coated tissue culture plates and then treating for 24 h with IL-1α (3 ng/ml, Sigma, 13901), TNF-α (30 ng/ml, Cell Signaling Technology, 8902SF), and C1q (400 ng/ml, MyBioSource, MBS143105). […]

A2 reactive astrocytes = test: A2 reactive astrocyte attachment on PDMS coated plates (targeted drug delivery); format: cell-based, mouse; settings: 30 ng/ml, 48 h; FIG. 5B

TGF-β
A1 astrocyte reactive state (A1 reactive astrocytes): reset A1 astrocytes to a non-reactive state | attachment of A1 astrocytes on PDMS coated surfaces (A1 reactive astrocytes; FIG. 5A): significantly reducing | attachment of A2 astrocytes on PDMS coated surfaces (A2 reactive astrocytes): did not induce

Reference: US20240374879A1, “METHODS AND COMPOSITIONS TO REDUCE CELLULAR DEPOSITION, AND HYDROCEPHALUS SHUNT FAILURE” (Wayne State University, priority 2021, published 2024)
